For orientation: mortality means the percentage killed. As a reminder, the LD50 is the dose expected to kill half of the subjects tested. Higher therefore signals lower toxicity.

Where two headings read alike, the source gives them in different places.

Data set [1] deals with third instar larvae of Heliothis virescens. Kind of data set: Insecticidal test on sprayed potted cotton and tobacco plants, initial and residual effect. The format is in vivo. As to the method:
Potted cotton and tobacco plants respectively were sprayed with 125 ppm of active ingredient in the form of an aqueous emulsion. After the coating had dried, the treated plants were infested with third instar larvae of Heliothis virescens. The tests were running under greenhouse conditions at 24° C and 60% relative humitidy. Assessments to evaluate the initial effect of the immediate acitivity of the active ingredient were carried out 4, 24 and 48 hours after the infestation of the plants with the pests. Assessments to evaluate the […] of the activity over a prolonged period of the active ingredient were carried out as follows: the coated test plants were infested with the test individuals 2 and 8 days respectively after the application of the active ingredient. Each test was checked after 4, 24 and 48 hours. Test compounds

The nature of data set [2]: Acute oral toxicity in rat. Conditions: in vivo, per os.
Another data set has as its system Anthrenus vorax. Kind of data set: Talcum dust on filter paper, dosage for 100% control within 24 hours. The format is in vivo. Conditions: 5% talcum dust on filter paper. As to the method: (§1) A dust on a base of talcum and containing 5% active ingredient was applied to filter paper in concentrations of 100, 50, 25, 12.5 6.2 and 3.1 mg of active substance per m^ 2. Onto each of the treated substrates were applied 5 Necrobia rufipes, Rhyzoperta dominica, Anthrenus vorax and Tribolium confusum individuals respectively. Evaluation took place 24 hours later. Test compounds were same as set forth in Example 2.

The next data set relates to Necrobia rufipes. Described as above. Conditions: 5% talcum dust on filter paper. In kind it is in vivo. The protocol:
as §1

In the next data set the test system is Rhyzoperta dominica. The data set is described as above. In kind it is in vivo. The following applies: 5% talcum dust on filter paper. As to the method: as §1
For the next data set, the system named is Tribolium confusum. The data set is described as above. The following applies: 5% talcum dust on filter paper. The format is in vivo. As to the method:
as §1

A further data set has as its system Tetranychus urticae. Kind of data set: Acaricidal action on Phaseolus vulgaris. The format is in vivo. The following applies: larvae, adults and eggs evaluated after 7 days; greenhouse 25° C. As to the method: The number of living and dead larvae, adults and eggs were evaluated after 7 days under a stereoscopic microscope and the result expressed in percentages. During the "interim", the treated plants were kept in greenhouse compartments at 25° C.

Another data set has as its system cotton pests. Put plainly: Comparison of activity with closest known compounds. The format is in vivo. Conditions: on at least the same toxicity level; especially initial effect towards cotton pests.
Where [3] appears, read: 125 ppm aqueous emulsion, initial effect, assessment 4 h after infestation, 24° C, 60% relative humidity, read-out: % mortality, initial, 4 hours.
The mark [4] stands for this setting: 125 ppm, infested 2 days after application, assessment at 24 h, read-out: % mortality, residual 2d, 24 hours.
[5] abbreviates: 125 ppm, infested 2 days after application, assessment at 48 h, read-out: % mortality, residual 2d, 48 hours.
[6] abbreviates: 125 ppm, infested 8 days after application, assessment at 4 h, read-out: % mortality, residual 8d, 4 hours.
Where [7] appears, read: 125 ppm, infested 8 days after application, assessment at 24 h, read-out: % mortality, residual 8d, 24 hours.
The mark [8] stands for this setting: 125 ppm, infested 8 days after application, assessment at 48 h, read-out: % mortality, residual 8d, 48 hours.
Setting [9] is: 125 ppm, initial effect, assessment 24 h after infestation, read-out: % mortality, initial, 24 hours.
Setting [10] is: 125 ppm, initial effect, assessment 48 h after infestation, read-out: % mortality, initial, 48 hours.
Where [11] appears, read: 4 h, read-out: % mortality, residual 2d, 4 hours.

As to `CCCSP(=O)(OCC)Oc1ccc(Cl)cc1Cl` (centres unmarked) [II, O-ethyl-S-n-propyl-O-(2,4-dichlorophenyl)-thiophosphoric acid ester], the mortality at 125 ppm in data set [1] (setting [3]) is 80%; in data set [1] (setting [4]), 100%; in data set [1] (setting [5]), 100%; in data set [1] (setting [6]), 30%; in data set [1] (setting [7]), 50%; in data set [1] (setting [8]), 100%. Further, the mortality at 125 ppm worked out at 90% in data set [1] (setting [9]), 100% in data set [1] (setting [10]) and 50% in data set [1] (setting [11]). The compound further showed an LD50 in data set [2] of 400 mg/kg. For the same compound, the “Dosage needed which provides a 100% control within 24 hours” value in the data set on Anthrenus vorax came to 50 mg a.i./m^2; in the data set with Necrobia rufipes, 6.2 mg a.i./m^2; in the data set on Rhyzoperta dominica, 50 mg a.i./m^2; in the data set with Tribolium confusum, 100 mg a.i./m^2.
Regarding `CCCSP(=O)(OCC)Oc1ccc(Br)cc1Br` (centres unmarked) [III, O-ethyl-S-n-propyl-O-(2,4-dibromophenyl)-thiophosphoric acid ester], the mortality at 125 ppm in data set [1] (setting [3]) was 75%; in data set [1] (setting [4]), 100%; in data set [1] (setting [5]), 100%; in data set [1] (setting [6]), 0%; in data set [1] (setting [7]), 5%; in data set [1] (setting [8]) it was 55%. The mortality at 125 ppm in data set [1] (setting [9]) is 100%; in data set [1] (setting [10]), 100%; in data set [1] (setting [11]) it was 30%. Moreover, the LD50 in data set [2] was found to be 300 mg/kg. The “Dosage needed which provides a 100% control within 24 hours” value in the data set on Anthrenus vorax is listed as 100 mg a.i./m^2; with Necrobia rufipes, 6.2 mg a.i./m^2; with Rhyzoperta dominica, 100 mg a.i./m^2; in the data set with Tribolium confusum it was greater than 100 mg a.i./m^2.
As for `CCCSP(=O)(OCC)Oc1ccc(Br)cc1Cl` (centres unmarked) [I, O-ethyl-S-N-propyl-O-(2-chloro-4-bromophenyl)-thiophosphate], the mortality at 125 ppm is 100% in data set [1] (setting [3]); 100% in data set [1] (125 ppm, infested 2 days after application, assessment at 4 h, read-out: % mortality, residual 2d, 4 hours); 100% in data set [1] (setting [4]); 100% in data set [1] (setting [5]); 50% in data set [1] (setting [6]); 100% in data set [1] (setting [7]). For the same compound, the mortality at 125 ppm in data set [1] (setting [8]), in data set [1] (setting [9]) and in data set [1] (setting [10]) was 100% each time. In data set [2], this compound registered an LD50 of 400 to 900 mg/kg. In the data set with Tetranychus urticae, the acaricidal activity result is listed as “good activity”. The “Dosage needed which provides a 100% control within 24 hours” value in the data set with Anthrenus vorax was 25 mg a.i./m^2; with Necrobia rufipes, 3.1 mg a.i./m^2; in the data set on Rhyzoperta dominica it was 25 mg a.i./m^2; in the data set on Tribolium confusum, 50 mg a.i./m^2. Further, the “activities versus the closest known compounds” value in the data set on cotton pests is listed as “surprisingly superior activities”.

For the origin of these results see patent US3992533A, “O-ethyl-S-N-propyl-O-(2-chloro-4-bromophenyl)-thiophosphate” (priority 1971, dated 1976).
